Measured values taken from publication PMC11645267, “Novel pharmacologic inhibition of lysine-specific demethylase 1 as a potential therapeutic for glioblastoma” (Cancer Gene Therapy, 2024).

Assays:
LSD2 = biological target: T1, LSD2 (Homo sapiens, UniProt Q8NB78); experiment: Enzyme inhibition assay (in vitro peroxidase assay) against LSD2
T1 sequence (Q8NB78 1-822): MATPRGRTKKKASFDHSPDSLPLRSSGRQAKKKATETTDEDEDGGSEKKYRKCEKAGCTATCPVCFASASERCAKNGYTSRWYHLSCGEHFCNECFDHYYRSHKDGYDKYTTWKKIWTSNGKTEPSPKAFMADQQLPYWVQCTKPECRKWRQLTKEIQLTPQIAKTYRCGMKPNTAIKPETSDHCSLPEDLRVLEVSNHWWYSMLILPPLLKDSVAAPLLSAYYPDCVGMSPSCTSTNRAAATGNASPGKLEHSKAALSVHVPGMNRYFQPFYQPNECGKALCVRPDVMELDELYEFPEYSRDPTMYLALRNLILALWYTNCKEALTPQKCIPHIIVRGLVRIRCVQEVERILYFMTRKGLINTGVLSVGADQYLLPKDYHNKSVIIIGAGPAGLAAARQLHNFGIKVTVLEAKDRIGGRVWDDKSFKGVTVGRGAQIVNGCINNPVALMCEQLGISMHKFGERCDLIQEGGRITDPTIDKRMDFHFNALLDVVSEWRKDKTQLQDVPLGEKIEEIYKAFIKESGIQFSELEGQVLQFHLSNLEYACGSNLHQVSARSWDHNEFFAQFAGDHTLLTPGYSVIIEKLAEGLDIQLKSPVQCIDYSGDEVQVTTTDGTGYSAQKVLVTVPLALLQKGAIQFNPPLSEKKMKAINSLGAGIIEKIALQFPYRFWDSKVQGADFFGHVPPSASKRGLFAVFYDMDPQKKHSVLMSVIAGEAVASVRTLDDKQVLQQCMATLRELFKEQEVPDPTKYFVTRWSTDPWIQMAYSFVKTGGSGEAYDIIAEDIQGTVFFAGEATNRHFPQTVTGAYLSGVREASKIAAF
Experimental: (§1) Enzyme inhibition assays against LSD1, LSD2, MAO-A, and MAO-B were performed as previously described [25]. Technical replicates, n = 3.

GSC1228 cells = experiment: ChIP-seq analysis of histone modifications; format: cell-based, human; settings: GSC1228, 5 μM, versus DMSO
Experimental: Cells (1 × 10^6) were treated with 1% formaldehyde for 8 min to crosslink histones to DNA. After washing with cold PBS, cell pellets were lysed with lysis buffer (10 mM Tris-HCl, 0.25% Triton X-100, 10 mM EDTA, and 0.1 M NaCl). Cell nuclei were collected after centrifugation and re-suspended in SDS lysis buffer (1% SDS, 150 mM NaCl, 50 mM HEPES-KOH, 2 mM EDTA, 1% Triton X-100, and 0.1% sodium deoxycholate). Chromatin was sonicated using Covaris S220 (Covaris, Moburn, MA, USA). Lysates were incubated overnight with 50 μL of Dynabeads Protein G (Thermo Fisher Scientific) which were pre-coated with 4 μL of anti-H3K4me1 antibody (ab8895, Abcam, Cambridge, UK), 3 μL of anti-H3K4me2 antibody (#39141, Active Motif), 2.5 μL of anti-H3K4me3 antibody (#39159, Active Motif), 4 μL of anti-H3K9me2 antibody (ab1220, Abcam). The beads were washed and protein-DNA complexes were eluted with elution buffer (1% SDS, 10 mM EDTA, and 50 mM Tris-HCl) and then treated with RNase for 2 h at 37°C followed by proteinase K treatment overnight. DNA was extracted by the phenol/chloroform method, ethanol-precipitated and re-suspended in 0.1 × TE buffer. 10% of the lysate was treated with RNase and proteinase K and de-crosslinked as input samples.
ChIP DNA (n = 2 for each antibody in each condition) was used to make sequence libraries using NEBNext Ultra II DNA library Prep kit for the Illumina (New England Biolabs, Ipswich, MA, USA). Library quality was checked using the Agilent Bioanalyzer 2100 (Agilent Technologies, Santa Clara, CA, USA) and then libraries were run on an Illumina Hiseq XTen (Illumina, San Diego, CA, USA).
ChIP-seq clean reads were obtained from raw reads by the removal of adaptors and low-quality reads. The clean reads were aligned to the human genome (hg38) using Bowtie2 (version 2.4.2). The levels of histone modification at gene promoters were estimated by counting the numbers of reads mapped within a 2-kb region around the transcriptional start site using MACS2 [30] and HOMER [31]. Differential analysis of peaks and generation of heatmap were performed using BEDtools v2.30.0 [32]. HOMER was used to annotate ChIP-seq peaks for genomic location and link these peaks to nearby genes. TF binding motif analysis was performed using HOMER. BEDtools was used to obtain overlap peaks with super-enhancers and H3K4me2 peaks. Furthermore, we used our deposited GSC316 H3K27ac ChIP-seq data (GSE178471) and identified super-enhancers by the Rank Ordering of Super Enhancer (ROSE) algorithm. From this analysis, we identified 672 super-enhancers.
To precisely evaluate the effects of S2172 on histone modifications at a genome-wide scale, we performed ChIP-seq analysis in GSC1228 cells treated with either DMSO or S2172. […]

MAO-A = biological target: T2, MAO-A (Homo sapiens, UniProt P21397); experiment: Enzyme inhibition assay (in vitro peroxidase assay) against MAO-A
T2 sequence (P21397 1-527): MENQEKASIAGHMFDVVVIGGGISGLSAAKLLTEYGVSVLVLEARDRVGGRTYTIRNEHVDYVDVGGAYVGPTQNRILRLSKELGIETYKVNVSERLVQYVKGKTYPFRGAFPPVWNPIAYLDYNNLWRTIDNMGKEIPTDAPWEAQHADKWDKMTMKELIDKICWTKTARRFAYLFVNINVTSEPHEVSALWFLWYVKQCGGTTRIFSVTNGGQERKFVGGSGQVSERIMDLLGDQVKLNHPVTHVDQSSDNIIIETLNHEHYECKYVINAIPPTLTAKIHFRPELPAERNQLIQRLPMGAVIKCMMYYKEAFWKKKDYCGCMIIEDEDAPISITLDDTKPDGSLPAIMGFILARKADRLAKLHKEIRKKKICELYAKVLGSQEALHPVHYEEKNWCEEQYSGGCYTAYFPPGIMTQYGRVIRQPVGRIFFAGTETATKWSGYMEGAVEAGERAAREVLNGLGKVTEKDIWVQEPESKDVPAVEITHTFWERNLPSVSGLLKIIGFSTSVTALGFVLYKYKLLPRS
Experimental: as §1

Q: Which results are given for NC1CCC(NC2CC2c2cc(F)cc(F)c2OCc2ccccc2)CC1 (centres unmarked) [S2172]?
A: Ki (LSD2): > 250 µM; Inhibition of LSD2 (in words) (LSD2; in vitro peroxidase assay): not inhibited; de novo H3K4me3 regions after treatment (GSC1228 cells): 2582 regions; new H3K4me2 regions (de novo regions) after treatment (GSC1228 cells): 20,085 regions; regions already modified by H3K4me2 with increased H3K4me2 after treatment (GSC1228 cells): 25,326 regions; regions from which H3K4me2 was lost after treatment (GSC1228 cells): 5788 regions; Ki (MAO-A): > 250 µM; Inhibition of MAO-A (in words) (MAO-A; in vitro peroxidase assay): not inhibited
